Results reported in patent US7820025B2, “Methods of synthesizing an oxidant and applications thereof” (Ferrate Treatment Technologies, LLC, priority 2000, dated 2010).

Assays:
biofilm = conditions: model condensers dosed with 10^−5 M solutions of ferrate twice a day, for 5 minutes; cited from earlier work
Total Coliform = test: Ferrate disinfection test of harbor waters, Total Coliform count; assay type: cell-based
Source text: (§1) We have conducted preliminary ferrate disinfection tests of harbor waters at two locations in the Port of Cape Canaveral, Fla. Sample A was collected at the inner Port, while Sample B was collected closer to the exit at the Port nearer to the open ocean.

aerobic spore-formers = conditions: chlorine resistant bacteria; cited from earlier work
total coliforms = conditions: water sources collected worldwide; cited from earlier work
[1] = tested on: sulfite-reducing clostridia; conditions: chlorine resistant bacteria; cited from earlier work
virus f2 = conditions: low concentrations in water; cited from earlier work
Heterotrophic bacteria = test: Ferrate disinfection test of harbor waters, Heterotrophic bacterial plate count (HPC); assay type: cell-based; conditions: for HPC: ferrate dose 2.0 mg/L FeO4^2−
Source text: as §1

E. coli = test: Ferrate disinfection test of harbor waters, E. coli count; assay type: cell-based
Source text: as §1

[2] = harbor water Sample A, ferrate dose 1.0 mg/L FeO4^2−
[3] = harbor water Sample A, ferrate dose 2.0 mg/L FeO4^2−
[4] = harbor water Sample B, ferrate dose 1.0 mg/L FeO4^2−
[5] = harbor water Sample B, ferrate dose 2.0 mg/L FeO4^2−

SMILES: [O]=[Fe](=[O])([O-])[O-] [Ferrate, ferrate]
- biofilm growth (biofilm): inhibited
- total coliform level after ferrate addition (in words) (Total Coliform; Sample A, ferrate dose 0.5 mg/L): reduced to non-detectable levels
- Total Coliform (Total Coliform; harbor water Sample A (inner Port, Port of Cape Canaveral), ferrate dose 0.5 mg/L FeO4^2−): <1 MPN/100 mL
- Total Coliform (Total Coliform; [2]): <1 MPN/100 mL
- Total Coliform (Total Coliform; [3]): <1 MPN/100 mL
- Total Coliform (Total Coliform; harbor water Sample B (near Port exit), ferrate dose 0.5 mg/L FeO4^2−): <1 MPN/100 mL
- Total Coliform (Total Coliform; [4]): <1 MPN/100 mL
- Total Coliform (Total Coliform; [5]): <1 MPN/100 mL
- reduction of spore-formers (aerobic spore-formers): up to 3 log units
- removal of total coliforms (total coliforms): complete removal
- killing of sulfite-reducing clostridia [1]: effectively killed
- inactivation of virus f2 (virus f2): rapidly inactivates
- HPC (Heterotrophic bacteria; harbor water Sample A): <5 cfu/mL
- HPC (Heterotrophic bacteria; harbor water Sample B): <5 cfu/mL
- levels of Heterotrophic bacteria after ferrate (in words) (Heterotrophic bacteria; samples A and B, dose of approximately 2 mg/L): reduced to non-detectable values
- disinfection for E. coli (in words) (E. coli; both samples, dose 0.5 mg/L): effective in killing E. coli
- E. Coli (E. coli; harbor water Sample A, ferrate dose 0.5 mg/L FeO4^2−): <1 MPN/100 mL
- E. Coli (E. coli; [2]): <1 MPN/100 mL
- E. Coli (E. coli; [3]): <1 MPN/100 mL
- E. Coli (E. coli; harbor water Sample B, ferrate dose 0.5 mg/L FeO4^2−): <1 MPN/100 mL
- E. Coli (E. coli; [4]): <1 MPN/100 mL
- E. Coli (E. coli; [5]): <1 MPN/100 mL
